Source: the Deep4Chem optical property database
Each block holds one compound with its values, some of them ahead of it.

Assay: solvent given as SMILES

SMILES: c1ccc(-c2c3c(c(-c4ccccc4)c4cc5ccccc5cc24)Cc2c(c(-c4ccccc4)c4cc5ccccc5cc4c2-c2ccccc2)C3)cc1
absorption maximum (in CC#N): 389 nm
absorption maximum (in CCCCCC): 388 nm
absorption maximum (in CO): 388 nm
absorption maximum (in Cc1ccccc1): 391 nm
absorption maximum (in ClCCl): 392 nm

absorption maximum (in CCCCCC): 440 nm
absorption maximum (in ClCCl): 439 nm
SMILES: CC(C)[Si](C#Cc1ccc(C#C[Si](C(C)C)(C(C)C)C(C)C)c2nc3ccccc3nc12)(C(C)C)C(C)C

absorption maximum (in C1CCOC1): 381 nm
absorption maximum (in CC#N): 376 nm
absorption maximum (in CO): 375 nm
absorption maximum (in ClCCl): 382 nm
SMILES: C(=C\c1nc2ccccc2[nH]1)/c1ccc(-c2nc3c4cccnc4c4ncccc4c3[nH]2)cc1

SMILES: Oc1ccccc1-c1nc2c3ccccc3c3ccccc3c2n1-c1ccccc1
absorption maximum (in Cc1ccccc1): 335 nm

absorption maximum (in ClCCl): 362 nm
SMILES: O=c1c2ccccc2nc2ccc(-c3ccc(-c4ccc(N(c5ccccc5)c5ccccc5)cc4)cc3)cn12

absorption maximum (in CC#N): 352 nm
SMILES: CC(=O)c1cc2c(cc1F)NC(C)(C)CC2=O

absorption maximum (in CCO): 383.73 nm
SMILES: Cc1ccc2cc3cc(C)ncc3cc2c1

absorption maximum (in C1CCOC1): 368 nm
SMILES: O=P1(c2ccccc2)C(c2cccs2)=C(c2cccs2)c2ccccc21 (configuration not stated)

absorption maximum (in ClCCl): 383 nm
SMILES: COc1ccc(-c2cc3c(ccc4sc5ccc6sc(-c7ccc(C#N)cc7)cc6c5c43)s2)cc1

absorption maximum (in ClCCl): 307 nm
SMILES: c1ccc2c(-c3cc4c(ccc5sccc54)s3)cccc2c1

absorption maximum (in CC#N): 367 nm
absorption maximum (in CCCCCC): 344 nm
absorption maximum (in CO): 365 nm
absorption maximum (in ClC(Cl)Cl): 351 nm
SMILES: c1cc2ccc3cccc4c(-c5cc(-c6nccs6)nc(-c6nccs6)c5)cc(c1)c2c34

SMILES: N#Cc1cccc(N2c3ccccc3C(c3ccccc3)(c3ccccc3)c3ccccc32)c1
absorption maximum (in Cc1ccccc1): 284 nm

absorption maximum (in CO): 770 nm
SMILES: CC1(C)C(/C=C/C2=C(c3ccc(C(=O)O)cc3)C(=C/C=C3/N(CCCCS(=O)(=O)[O-])c4ccc(S(=O)(=O)[O-])cc4C3(C)C)/CCC2)=[N+](CCCCS(=O)(=O)[O-])c2ccc(S(=O)(=O)[O-])cc21

absorption maximum (in ClC(Cl)Cl): 620 nm
SMILES: CC1=C(Br)C(/C=C/c2ccncc2)=[N+]2C1=C(c1ccccc1)c1c(C)c(Br)c(/C=C/c3ccncc3)n1[B-]2(F)F

absorption maximum (in c1ccccc1): 332 nm
SMILES: O=c1oc2ccccc2nc1-c1ccccc1

absorption maximum (in CO): 815 nm
SMILES: O=S(=O)([O-])CCCCN1C=C/C(=C/C=C/C=C/c2cc[n+](CCCCS(=O)(=O)[O-])c3ccccc23)c2ccccc21

SMILES: COc1ccc(C2=[N+]3C(=Nc4c(-c5cc(OC)c(OC)c(OC)c5)cc(-c5ccc(OC)cc5)n4[B-]3(F)F)C(c3cc(OC)c(OC)c(OC)c3)=C2)cc1
absorption maximum (in Cc1ccccc1): 698 nm

absorption maximum (in CC#N): 400 nm
SMILES: COc1cc2cc(/C=C/c3ccc(/C=C(\C#N)C(=O)O)cc3)c(=O)oc2cc1OC

absorption maximum (in CS(C)=O): 368 nm
SMILES: O=C1CCCC2=C1C(c1ccccc1)c1c(c3ccccc3oc1=O)N2 (configuration not stated)

absorption maximum (in C1CCOC1): 393 nm
absorption maximum (in ClC(Cl)Cl): 394 nm
SMILES: F[Si](c1ccccc1)(c1ccccc1)c1c2ccccc2cc2ccccc12

absorption maximum (in ClCCl): 338 nm
SMILES: CC(C)(C)NC(=O)c1ccc(Br)c2ccc3c4ccc(F)cc4c4cc(F)ccc4c3c12

absorption maximum (in CC#N): 394 nm
SMILES: CCOC(=O)c1c2c3c(ccc([N+](=O)[O-])c3c3cc4ccccc4cc13)N(C)C2=O

SMILES: Cc1cc(C)c(B(c2c(C)cc(C)cc2C)c2c(C)cc(N3c4ccccc4Oc4ccccc43)cc2C)c(C)c1
absorption maximum (in Cc1ccccc1): 399 nm

absorption maximum (in CC1CCCO1): 305 nm
SMILES: c1ccc2c(c1)-c1ccccc1C21c2ccccc2-c2cnccc21

SMILES: Fc1ccc(-c2nc3n(c2-c2ccncc2)CCS3)cc1
absorption maximum (in C1CCCCC1): 328 nm
absorption maximum (in C1CCOC1): 328.5 nm
absorption maximum (in C1COCCO1): 328.5 nm
absorption maximum (in CC#N): 319 nm
absorption maximum (in CC(C)(C)O): 329.5 nm
absorption maximum (in CC(C)O): 328 nm
absorption maximum (in CCO): 325 nm
absorption maximum (in CCOC(C)=O): 319 nm
absorption maximum (in CN(C)C=O): 326.5 nm
absorption maximum (in CNC=O): 325.5 nm
absorption maximum (in CO): 322.5 nm
absorption maximum (in CS(C)=O): 329 nm
absorption maximum (in Cc1ccc(C)cc1): 332 nm
absorption maximum (in Cc1ccccc1): 333.5 nm
absorption maximum (in ClC(Cl)Cl): 329 nm
absorption maximum (in ClCCl): 326 nm
absorption maximum (in O): 322 nm
absorption maximum (in OCCO): 330 nm

absorption maximum (in ClC(Cl)Cl): 378 nm
SMILES: CCCCCCN1C(=O)c2cccc3c(-c4cc5ccccc5s4)ccc(c23)C1=O

absorption maximum (in ClCCl): 393 nm
SMILES: O=C(NCc1ccccc1)c1sc(-c2ccc(-c3cc(C4CC4)c(C(=O)NCc4ccccc4)s3)s2)cc1C1CC1

absorption maximum (in ClC(Cl)Cl): 359 nm
SMILES: c1ccc(-n2c(-c3ccc(-c4ccc5c(c4)C4(c6ccccc6-c6ccccc64)c4cc(-c6ccc(-c7nc8ccccc8n7-c7ccccc7)cc6)c6ccccc6c4-5)cc3)nc3ccccc32)cc1

absorption maximum (in ClCCl): 659 nm
SMILES: CC(C)[Si](C#Cc1ccc(C#Cc2c3cc4ccccc4cc3c(C#C[Si](C(C)C)(C(C)C)C(C)C)c3cc4ccccc4cc23)cc1)(C(C)C)C(C)C

absorption maximum (in ClCCl): 414 nm
SMILES: CC(C)(C)c1ccc(C#Cc2cc3c(C#Cc4ccc(C(C)(C)C)cc4)c(C#Cc4ccc(C(C)(C)C)cc4)c4cc(C#Cc5ccc(C(C)(C)C)cc5)cc5c(C#Cc6ccc(C(C)(C)C)cc6)c(C#Cc6ccc(C(C)(C)C)cc6)c(c2)c3c45)cc1

absorption maximum (in ClCCl): 649 nm
SMILES: COC(=O)CCC1=CC(C#Cc2cccs2)=[N+]2C1=Cc1c(CCC(=O)OC)cc(C#Cc3cccs3)n1[B-]2(F)F

SMILES: CC(C)(C)c1ccc2c(c1)c1cc(C(C)(C)C)ccc1n2-c1ccc2oc3nc4oc5ccc(C(F)(F)F)cc5c4cc3c2c1
absorption maximum (in C1CCCCC1): 343 nm
absorption maximum (in C1CCOC1): 338 nm
absorption maximum (in CC#N): 336 nm
absorption maximum (in CS(C)=O): 337 nm
absorption maximum (in Cc1ccccc1): 343 nm
absorption maximum (in ClC(Cl)Cl): 345 nm

absorption maximum (in ClCCl): 284 nm
SMILES: C(=C\c1nc2c(c(N3CCOCC3)n1)CCCC2)/c1ccccc1

absorption maximum (in ClCCl): 405 nm
SMILES: CCN(CC)c1ccc2c(c1)oc(=O)c1cnc3c(cnn3-c3ccccc3)c12

absorption maximum (in C1CCOC1): 670 nm
absorption maximum (in CS(C)=O): 675 nm
absorption maximum (in ClCCl): 670 nm
SMILES: COc1cc(OC)cc(C2=C3C(C)=C(I)C(/C=C/c4ccsc4)=[N+]3[B-](F)(F)n3c(/C=C/c4ccsc4)c(I)c(C)c32)c1

absorption maximum (in C1CCOC1): 687 nm
SMILES: O=C1/C(=C2\Nc3cc4ccc5cccc6ccc(c3C2=O)c4c56)Nc2cc3ccc4cccc5ccc(c21)c3c45

absorption maximum (in ClCCl): 408 nm
SMILES: C[Si]1(C)c2cc(-c3cccs3)ccc2C=Cc2ccc(-c3cccs3)cc21

absorption maximum (in O): 463 nm
SMILES: CC[n+]1c(-c2ccccc2)c2cc(NC(N)=O)ccc2c2ccc(N)cc21

SMILES: CCCCCCCCOc1ccc(C#Cc2ccc(C#Cc3ccc(OCCCCCCCC)c(OCCCCCCCC)c3)c3nc4c5ccccc5c5ccccc5c4nc23)cc1OCCCCCCCC
absorption maximum (in C1CCOC1): 461 nm
absorption maximum (in Cc1ccccc1): 461 nm
absorption maximum (in ClCCl): 461 nm

SMILES: Cc1cccc(NC(=O)c2ccc(N(C)C)cc2)c1
absorption maximum (in C1CCCCC1): 306 nm
absorption maximum (in C1CCOC1): 311 nm
absorption maximum (in CC#N): 314 nm
absorption maximum (in CCOCC): 306 nm

absorption maximum (in ClCCl): 572 nm
SMILES: CCCCCCc1cc2c(=S)c3cc(CCCCCC)cc4c(=S)c5cc(CCCCCC)cc6c(=S)c(c1)c2n(c34)c65

absorption maximum (in CS(C)=O): 480 nm
absorption maximum (in ClCCl): 447 nm
SMILES: O=c1oc2ccccc2c2c1c(=O)oc1c3ccccc3cc(O)c12

absorption maximum (in CC#N): 334 nm
absorption maximum (in CCOC(C)=O): 334 nm
absorption maximum (in CN(C)C=O): 342 nm
absorption maximum (in CS(C)=O): 344 nm
absorption maximum (in c1ccccc1): 332 nm
SMILES: CCOC(=O)CN(CC(=O)OCC)c1ccc(-c2cc(-c3ccncc3)nc(-c3ccncc3)c2)cc1

SMILES: CC1(C)c2ccccc2N(c2c(F)cc(-c3nnc(-c4ccccc4)o3)cc2F)c2ccccc21
absorption maximum (in Cc1ccccc1): 376 nm
absorption maximum (in O=P(c1ccccc1)(c1ccccc1)c1ccccc1Oc1ccccc1P(=O)(c1ccccc1)c1ccccc1): 370 nm

absorption maximum (in CC#N): 546 nm
absorption maximum (in ClCCl): 549 nm
SMILES: CCN(CC)c1ccc(/N=N/c2nc3ccc([N+](=O)[O-])cc3s2)cc1

absorption maximum (in ClCCl): 617 nm
SMILES: COc1ccccc1C1=[N+]2C(=C(c3ccccc3)c3c4ccccc4c(-c4ccccc4OC)n3[B-]2(F)F)c2ccccc21

absorption maximum (in ClCCl): 588 nm
SMILES: CCCCCCn1c2cc(C=C(C#N)C#N)sc2c2sc3c(sc4c5sc(C=C(C#N)C#N)cc5n(CCCCCC)c43)c21

absorption maximum (in C1CCCCC1): 260.08 nm
SMILES: Cc1ccccc1-c1ccccc1C

absorption maximum (in ClCCl): 493 nm
SMILES: c1ccc(-c2c3ccccc3c(-c3ccccc3)c3cc4ccccc4cc23)cc1

SMILES: COc1ccc2c3ccc(OC)cc3n(-c3ccc(-c4nnc(C)o4)cc3)c2c1
absorption maximum (in Cc1ccccc1): 319 nm

absorption maximum (in CC#N): 448 nm
SMILES: Cc1ccc2c(nc3c(=O)n(C)c(=O)nc-3n2C)c1C

SMILES: CCNCC
absorption maximum (in CCCCCC): 193 nm

absorption maximum (in ClC(Cl)Cl): 372 nm
SMILES: CCCCc1c2c(nc3ccccc13)-c1cc3c(cc1CC2)-c1nc2ccccc2c(CCCC)c1CC3

absorption maximum (in C1CCOC1): 407 nm
SMILES: CN(C)c1ccc(C(=Cc2ccc(C=O)cc2)c2ccc(N(C)C)cc2)cc1

absorption maximum (in ClCCl): 474 nm
SMILES: CCCCN(CCCC)c1ccc2c(c1)C#CC#Cc1cc(C(F)(F)F)ccc1C#Cc1cc(c3cc1C#Cc1ccc(C(F)(F)F)cc1C#CC#Cc1cc(N(CCCC)CCCC)ccc1C#C3)C#C2

SMILES: COc1cccc(C2=CC3=C(c4c(C)cc(C)cc4C)c4cc(-c5cccc(OC)c5)c(-c5cccc(OC)c5)n4[B-](F)(F)[N+]3=C2c2cccc(OC)c2)c1
absorption maximum (in C1CCCCC1): 596 nm
absorption maximum (in C1CCOC1): 592 nm
absorption maximum (in CC#N): 581 nm
absorption maximum (in Cc1ccccc1): 596 nm
absorption maximum (in ClCCl): 588 nm

SMILES: CC(=O)O[B-]1(OC(C)=O)OC(/C=C/c2ccccc2)=CC(/C=C/c2ccccc2)=[O+]1
absorption maximum (in C1CCOC1): 422 nm
absorption maximum (in CC#N): 422 nm
absorption maximum (in CC(C)=O): 422 nm
absorption maximum (in CS(C)=O): 428 nm
absorption maximum (in Cc1ccccc1): 424 nm
absorption maximum (in ClC(Cl)Cl): 426 nm
absorption maximum (in ClCCl): 424 nm

absorption maximum (in O): 332 nm
SMILES: Nc1ccc2ccc(O)cc2c1

absorption maximum (in CN(C)C=O): 342 nm
SMILES: Fc1cc(-c2ccc(-c3nc4cc(Br)ccc4[nH]3)cc2)ccc1-c1ccc(-c2nc3cc(Br)ccc3[nH]2)cc1

SMILES: CC1(C)c2cc(C#N)ccc2-c2ccc(N3c4ccccc4Oc4ccccc43)cc21
absorption maximum (in C1CCCCC1): 395 nm
absorption maximum (in C1CCOC1): 380 nm
absorption maximum (in CC#N): 375 nm
absorption maximum (in Cc1ccccc1): 390 nm
absorption maximum (in ClC(Cl)Cl): 389 nm
